Measured values as given in US20030220524A1, “Sulfur containing compounds” (priority 2000, published 2003).
Like-named read-outs stand apart in the source and are kept apart here.

How the values were obtained:
AML-3 leukemic cell line [1] = assay: MTT assay; assay type: cell-based, human
Description: (§1) All cell lines were assayed as asynchronously growing cells. Leukemic cell lines, OCI-AML-2, OCI-AML-3 (referred to hereafter as AML-2 and AML-3, respectively), NB-4, KK, B1, G2, and W1 were cultured in alpha-minimal essential medium (α-MEM) (Princess Margaret Hospital Media Services) supplemented with 10% fetal bovine serum (FBS) (Sigma, St. Louis, Mo.). Non-transformed, diploid fibroblast lines WI38 and IMR90, were cultured in α-MEM and MEM F-15, respectively supplemented with 10% FBS. Media for IMR90 cells was also supplemented with 1.5 g/L bicarbonate and 1 mM pyruvate. Breast tumour cell lines, MDA-231, SK-BR-3, MCF-7, ZR-751, and melanoma tumour cell lines, WM9, WM983, WM793, 1232, were grown in α-MEM supplemented with 10% fetal bovine serum. Prostate tumour cell lines, DU145 and PC-3, were grown in RPMI 1640 media supplemented with 10% FBS. All cell lines were cultured in the presence of penicillin/streptomycin. Mononucleated cells were isolated from normal bone marrow using Ficoll hypaque and then T-cell depleted. T-cell depletion was performed by incubating the mononucleated bone marrow cells in α-MEM at a concentration of 2×10^7 cells/mL with 10% absor FBS and 10% (v/v) sheep red blood cells for 4 to 16 h. Absor FBS was prepared beforehand by heating FBS at 56° C. for 1 h, incubating with sheep red blood cells at 0.5% (v/v) for 1 h and then filtering the FBS with a […]. The T-cell depleted, mononucleated cells were recovered using Ficoll hypaque and were maintained in α-MEM supplemented with 20% FBS and 10% 5637 ? nditioned media. 5637 conditioned media ? s previously harvested from confluent 5637 cells after a 3 day incubation. Normal bone marrow from bone marrow transplant donor was collected following informed consent according to institutional guidelines.
(§2) Approximately 20 mg of each compound was dissolved in 5 mL of ACS grade acetone (Sigma) using a 5 mL volumetric flask. Stock solutions of the compounds were stored in the dark at −20° C. Compounds were diluted prior to each experiment.
(§3) Adherent cells were seeded at 67×10^3 cells/mL in a 96 well plate (Falcon, Mississauga, Ontario) the day prior to exposure to compound. Suspension cells were seeded at 27×10^4 cells/mL in a 96 well plate the day of exposure to compound. Mononucleated, T-cell depleted normal bone marrow cells were seeded at 67×10^4 cells/mL in a 96 well plate the day of exposure to compound. Compounds and solvent control were added to cells and assayed in triplicate or sextuplet. Following 48 h of incubation at 37° C. with 5% CO2, 40 μL of a 5 mg/mL solution of 3-[4,5-dimethylthiazol-2-yl]-2,5-diphenyltetrazolium bromide (MTT) substrate (Sigma) in Dulbecco's phosphate-buffered saline (D-PBS) was added. After 4 h of incubation at 37° C. with 5% CO2, the resulting violet formazan precipitate was solubilized by the addition of 80 μL of a 0.01 M HCI, 10% sodium dodecyl sulfate (SDS; Sigma) solution overnight at 37° C. with 5% CO2. The plates were then analyzed using the BioRad Benchmark Microplate Reader (BioRad Laboratories, Hercules, Calif.) at 570 nm to determine the optical density of the samples. MTT data was analyzed using Prism 3.0 (GraphPad Software, Inc., San Diego, Calif.) by the Chou-Talalay method. MTT graphs shown are a representative experiment.
(§4) Adherent cells were seeded at 67×10^3 cells/mL in a 96 well plate (Falcon, Mississauga, Ontario) the day prior to exposure to compound. Suspension cells were seeded at 27×10^4 cells/mL in a 96 well plate the day of exposure to compound. Mononucleated, T-cell depleted normal bone marrow cells were seeded at 67×10^4 cells/mL in a 96 well plate the day of exposure to compound. Compounds and solvent control were added to cells and assayed in triplicate or sextuplet. […]

KK leukemic cell line = assay: MTT assay; assay type: cell-based, human; settings: 48 h, read-out: MTT50
Description: as §1, §2, §3, §4

[2] = test system: WI38 non-transformed diploid fibroblasts; assay: MTT assay; assay type: cell-based, human; settings: for IC50: read-out: MTT50; for Viability of non-transformed human WI38 fibroblasts following exposure: in words
Description: as §1, §2, §3, §4

[3] = test system: Normal bone marrow (mononucleated, T-cell depleted); assay: MTT assay; assay type: cell-based; settings: 48 h, read-out: MTT50
Description: as §1, §2, §3, §4

AML-3 leukemic cell line [4] = assay: Fixed propidium iodide staining, flow cytometry; assay type: cell-based, human; settings: 48 h
Description: (§5) Adherent cell lines were plated at 35×10^4 cells/60 cm^2 dish the day before exposure to compound. Suspension cells were seeded at 25×10^4 cells/mL in a 6 well dish (Falcon) the day of exposure to compound. Mononucleated, T-cell depleted normal bone marrow cells were seeded at 50×10^4 cells/mL in a 6 well dish the day of exposure to compound. Cells were exposed to solvent control or approximate MTT50 and MTT30 concentrations of the compound. After 48 h of exposure to the compound, cells were harvested, fixed in 80% ethanol for 1 h on ice and labeled with 50 μg/mL propidium iodide (Sigma). Approximately 10^6 cells were analyzed using a XL-MCL flow cytometer (Coulter Corporation, Miami, Fla.) and a FACScalibar cytometer (Becton Dickinson, San Jose, Calif.). Profiles shown are a representative.
as §5, with “cm2” for “cm^2”, “concentrations.” for “concentrations of the compound.”, “representative. Cell viability counts and Pi staining were performed as previously described (Dimitroulakos, J, Nohynek, D, Backway, K L, Hedley, D W, Yeger, H, Freedman, M H, Minden, M D and Penn, L Z: Increased sensitivity of acute myeloid leukemias to lovastatin-induced apoptosis: A potential therapeutic approach. Blood 93: 1308-18, 1999).” for “representative.”

[5] = Homo sapiens, AML3, 48 h, AML-3, read-out: MTT50
[6] = Homo sapiens, WI-38, 48 h, WI38 (normal), 48 h

Structure (SMILES)	IC50 (AML-3 leukemic cell line [1]; [5]) [µM]	IC50 (KK leukemic cell line; Homo sapiens, KK) [µM]	IC50 [2, 6] [µM]	IC50 ([3]; T-cell, Normal bone marrow) [µM]	IC50 (AML-3 leukemic cell line [1]; AML-3, 48 h, read-out: MTT50) [µM]	IC50 (KK leukemic cell line; KK) [µM]	IC50 ([2]; WI38 (normal), 48 h) [µM]	Viability of non-transformed human WI38 fibroblasts following exposure [2]	IC50 ([3]; Normal bone marrow) [µM]	also measured
CSCSSC [Compound N, 2,3,5-trithiahexane]										IC50 (AML-3 leukemic cell line [1]; Homo sapiens, AML3, 48 h, read-out: MTT50, AML-3): 51.1 µM; IC50 (AML-3 leukemic cell line [1]; read-out: MTT50, AML-3, 48 h): 73.4 µM; IC50 (KK leukemic cell line; Homo sapiens): 65.2 µM; IC50 ([2]; Homo sapiens, WI-38, 48 h): > 100 µM; IC50 ([3]; T-cell): > 100 µM; % G2 increase (Fixed PI) (AML-3 leukemic cell line [4]; dose 50 uM): +17%; % pre-G1 (Fixed PI) (AML-3 leukemic cell line [4]; dose 50 uM): 17%; % G2 increase (Fixed PI) (AML-3 leukemic cell line [4]; dose 150 uM): +14%; % pre-G1 (Fixed PI) (AML-3 leukemic cell line [4]; dose 150 uM): 35%
CSSCC(=O)c1ccccc1 [Compound P, phenacyl methyl disulphide]	51.1	65.2	> 100	> 100						% pre-G1 (Fixed PI) (AML-3 leukemic cell line [4]; dose 50 uM): 7%; % pre-G1 (Fixed PI) (AML-3 leukemic cell line [4]; dose 150 uM): 66%
CSSCS(=O)(=O)c1ccc(C)cc1 [Compound C, α-p-toluenesulfonyl dimethyl disulphide]					16.9	31.4	89	decreased	20.9	% G2/M (Fixed PI) (AML-3 leukemic cell line [4]; dose 20.2 uM (10 ug/mL)): 11.1%; % pre-G1 (Fixed PI) (AML-3 leukemic cell line [4]; dose 20.2 uM (10 ug/mL)): 10.7%
CSCSCS(C)(=O)=O [B]					> 134	> 134	> 134	not affected	> 134	% G2/M (Fixed PI) (AML-3 leukemic cell line [4]; dose 107 uM (20 ug/mL)): 13.4%; % pre-G1 (Fixed PI) (AML-3 leukemic cell line [4]; dose 107 uM (20 ug/mL)): 0.3%
COC(=O)CSSC [H, methyl 3,4-dithiopentanoate]					93.4	110	> 164	not affected	366	% pre-G1 (Fixed PI) (AML-3 leukemic cell line [4]; dose 65.7 uM (10 ug/mL)): 3.6%
CSSCOC(C)=O [I, 2,3-dithiabutyl acetate]	31.5	31.5	76.9	32.8				decreased		% pre-G1 (Fixed PI) (AML-3 leukemic cell line [4]; dose 232.8 uM (5 ug/mL)): 23.6%
CS(=O)(=O)CSCS(C)(=O)=O [G, 2,4,6-trithiaheptane 2,2,6,6-tetraoxide]	114	114	114	114				not affected		% G2/M (Fixed PI) (AML-3 leukemic cell line [4]; dose 45.8 uM (10 ug/mL)): 13.5%; % pre-G1 (Fixed PI) (AML-3 leukemic cell line [4]; dose 45.8 uM (10 ug/mL)): 0.3%
c1ccc(SSc2ccccc2)cc1 [D, diphenyl disulphide]	10.1	12.8	45.3	19.1				decreased		% pre-G1 (Fixed PI) (AML-3 leukemic cell line [4]; dose 91.6 uM (20 ug/mL)): 24.1%
CS(=O)(=O)CSSc1ccccc1 [E, 5-phenyl-2,4,5-trithiapentane 2,2-dioxide]	15.4	17.5	45.2	21.9				decreased		% pre-G1 (Fixed PI) (AML-3 leukemic cell line [4]; dose 85.3 uM (20 ug/mL)): 24.5%
CSSc1ccc([N+](=O)[O-])cc1 [M, methyl p-nitrophenyl disulphide]	15	10.5	13.8	22.6	8.53		17.4			% pre-G1 (Fixed PI) (AML-3 leukemic cell line [4]; dose 20 uM): 34%; % pre-G1 (Fixed PI) (AML-3 leukemic cell line [4]; dose 40 uM): 56%
CS(C)(=O)=O [Compound A, dimethyl sulfone]					> 265	> 265	> 265	not affected	> 265	% pre-G1 (Fixed PI) (AML-3 leukemic cell line [4]; dose 212 uM (20 ug/mL)): 0.1%
CCC(=O)OCSSc1ccccc1 [Compound Q, 1-phenyl-1,2-dithiapropyl propionate]	22.5	23.7	> 100	> 100						% G2 increase (Fixed PI) (AML-3 leukemic cell line [4]; dose 20 uM): −5%; % pre-G1 (Fixed PI) (AML-3 leukemic cell line [4]; dose 20 uM): 10%; % G2 increase (Fixed PI) (AML-3 leukemic cell line [4]; dose 40 uM): −9%; % pre-G1 (Fixed PI) (AML-3 leukemic cell line [4]; dose 40 uM): 42%
CSSCCS(C)(=O)=O [F, 2,3,6-trithiaheptane 6,6,-dioxide]					44	93.4	> 100	not affected	116	% G2/M (Fixed PI) (AML-3 leukemic cell line [4]; dose 45.8 uM (10 ug/mL)): 34.1%; % pre-G1 (Fixed PI) (AML-3 leukemic cell line [4]; dose 45.8 uM (10 ug/mL)): 5.1%
